Results taken from patent US5140014A (Abbott Laboratories, priority 1989, dated 1992).
In brackets after ≈: the same amount, converted by molar mass. Where two headings read alike, the source gives them in different places.

Columns and labels:
Test in all cases: in vitro antibacterial activity, agar dilution method (MIC)
Type in all cases: cell-based
[1] = test system: Escherichia Coli; details: BHI agar, 20-24 hours
Outline: (§1)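 Agar dilution on BHI agar, typically 12 two-fold dilutions prepared from a 2,000 ug/mL stock solution. Plates were spot-inoculated with about 10^4 organisms from overnight BHI broth cultures, then incubated 20-24 h at 35°-37° C. MIC was the lowest concentration giving no growth, a slight haze or sparse isolated colonies compared with the growth control.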

[2] = test system: Pseudomonas Cepacia; details: strain 296I, BHI agar, 20-24 hours
Outline: as §1

[3] = test system: Haemophilus Influenzae; details: BHI agar, 20-24 hours
Outline: (§2)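 Agar dilution in BHI agar, usually 12 two-fold dilutions from a 2,000 ug/mL stock. About 10^4 organisms from overnight BHI broth cultures (diluted 1:100) were spotted and incubated at 35-37 °C for 20-24 h. MIC was the lowest concentration giving no growth, slight haze or sparse colonies versus growth control.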

[4] = test system: Staphylococcus Aureus; details: BHI agar, 20-24 hours
Outline: as §2

[5] = test system: Staphylococcus Epidermidis; details: strain 3519, BHI agar, 20-24 hours
Outline: as §2

[6] = test system: Enterobacter Aerogenes; details: BHI agar, 20-24 hours
Outline: as §2

[7] = test system: Streptococcus Pyogenes; details: BHI agar, 20-24 hours
Outline: (§3)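 Agar dilution in Brain Heart Infusion agar, usually 12 two-fold dilutions from a 2,000 ug/mL stock. Overnight BHI broth cultures were diluted 1:100 (1:10 for slow growers such as Streptococcus), and ~10^4 organisms were spotted per plate. MIC read after 20-24 h at 35°-37° C as lowest concentration giving no growth, slight haze or sparse colonies versus growth control.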

[8] = test system: Streptococcus Agalactiae; details: strain CMX 508, BHI agar, 20-24 hours
Outline: as §2

[9] = test system: Providencia Stuartii; details: strain CMX 640, BHI agar, 20-24 hours
Outline: as §2

[10] = test system: Acinetobacter Sp; details: strain CMX 669, BHI agar, 20-24 hours
Outline: as §2

[11] = test system: Micrococcus Luteus; details: BHI agar, 20-24 hours
Outline: as §3

[12] = test system: Pseudomonas Aeruginosa; details: BHI agar, 20-24 hours
Outline: as §2

[13] = test system: Streptococcus Bovis; details: strain A5169, BHI agar, 20-24 hours
Outline: as §2

[14] = test system: Enterococcus Faecium; details: BHI agar, 20-24 hours
Outline: as §2

[15] = test system: Klebsiella Pneumoniae; details: BHI agar, 20-24 hours
Outline: as §2

## CCC1OC(=O)CC(O)C(C)C(OC2OC(C)C(O)C(N(C)C)C2O)C(CC=O)CC(C)C(N(C)C)CCC(C)=CC1COC(C)=O (stereo not shown) [Example 6, [9R]-23-O-Acetyl-9-deoxo-10,11-dihydro-9-N,N-dimethylamino-5-O-mycaminosyl-tylonide]
[1]; Escherichia coli, strain DC-2, read-out: MIC
  MIC: 100 µg/mL (≈ 149 µM)
[1]; Escherichia coli, strain JUHL, read-out: MIC
  MIC: > 100 µg/mL
[1]; Escherichia coli, strain KNK 437, read-out: MIC
  MIC: > 100 µg/mL
[1]; Escherichia coli, strain SS, read-out: MIC
  MIC: 1.56 µg/mL (≈ 2.33 µM)
[1]; strain H560
  MIC: 50 µg/mL (≈ 74.5 µM)
[2]; Burkholderia cepacia, read-out: MIC
  MIC: > 100 µg/mL
[3]; Haemophilus influenzae, ATCC9795, strain ATCC 9795, read-out: MIC
  MIC: 4 µg/mL (≈ 5.96 µM)
[3]; Haemophilus influenzae, ATCC10211, strain ATCC 10211, read-out: MIC
  MIC: 4 µg/mL (≈ 5.96 µM)
[3]; Haemophilus influenzae, ATCC19418, strain ATCC 19418, read-out: MIC
  MIC: 8 µg/mL (≈ 11.9 µM)
[3]; Haemophilus influenzae, strain 504, read-out: MIC
  MIC: 2 µg/mL (≈ 2.98 µM)
[3]; Haemophilus influenzae, strain 519A, read-out: MIC
  MIC: 2 µg/mL (≈ 2.98 µM)
[3]; Haemophilus influenzae, strain 566A, read-out: MIC
  MIC: 8 µg/mL (≈ 11.9 µM)
[3]; Haemophilus influenzae, strain 632A, read-out: MIC
  MIC: 8 µg/mL (≈ 11.9 µM)
[3]; Haemophilus influenzae, strain 747C, read-out: MIC
  MIC: 8 µg/mL (≈ 11.9 µM)
[3]; Haemophilus influenzae, strain 751, read-out: MIC
  MIC: > 16 µg/mL
[3]; Haemophilus influenzae, strain 1177, read-out: MIC
  MIC: 0.25 µg/mL (≈ 0.373 µM)
[3]; Haemophilus influenzae, strain 1435, read-out: MIC
  MIC: 4 µg/mL (≈ 5.96 µM)
[3]; Haemophilus influenzae, strain DILL AMP R, read-out: MIC
  MIC: 4 µg/mL (≈ 5.96 µM)
[3]; Haemophilus influenzae, strain SOL AMP R, read-out: MIC
  MIC: 8 µg/mL (≈ 11.9 µM)
[3]; Haemophilus influenzae, strain SPK AMP R, read-out: MIC
  MIC: 8 µg/mL (≈ 11.9 µM)
[3]; strain 503B
  MIC: 8 µg/mL (≈ 11.9 µM)
[3]; strain ATCC 43095
  MIC: 8 µg/mL (≈ 11.9 µM)
[4]; Staphylococcus aureus, ATCC6538P, strain ATCC 6538P, read-out: MIC
  MIC: 3.1 µg/mL (≈ 4.62 µM)
[4]; Staphylococcus aureus, NCTC10649, strain NCTC 10649, read-out: MIC
  MIC: 3.1 µg/mL (≈ 4.62 µM)
[4]; Staphylococcus aureus, strain 45, read-out: MIC
  MIC: 3.1 µg/mL (≈ 4.62 µM)
[4]; Staphylococcus aureus, strain 45 RAR2, read-out: MIC
  MIC: 6.2 µg/mL (≈ 9.24 µM)
[4]; Staphylococcus aureus, strain 642A, read-out: MIC
  MIC: 6.2 µg/mL (≈ 9.24 µM)
[4]; Staphylococcus aureus, strain A5177, read-out: MIC
  MIC: 3.1 µg/mL (≈ 4.62 µM)
[4]; Staphylococcus aureus, strain CMX 553, read-out: MIC
  MIC: 6.2 µg/mL (≈ 9.24 µM)
[5]; Staphylococcus epidermidis, read-out: MIC
  MIC: 3.1 µg/mL (≈ 4.62 µM)
[6]; Klebsiella aerogenes, ATCC13048, strain ATCC 13048, read-out: MIC
  MIC: > 100 µg/mL
[7]; Streptococcus pyogenes, strain 930 CONST, read-out: MIC
  MIC: > 100 µg/mL
[7]; Streptococcus pyogenes, strain 2548 INDUC, read-out: MIC
  MIC: 3.1 µg/mL (≈ 4.62 µM)
[7]; Streptococcus pyogenes, strain EES61, read-out: MIC
  MIC: 0.39 µg/mL (≈ 0.581 µM)
[8]; Streptococcus agalactiae, read-out: MIC
  MIC: 0.39 µg/mL (≈ 0.581 µM)
[9]; Providencia stuartii, read-out: MIC
  MIC: > 100 µg/mL
[10]; Acinetobacter, read-out: MIC
  MIC: > 100 µg/mL
[11]; Micrococcus luteus, ATCC4698, strain ATCC 4698, read-out: MIC
  MIC: 1.56 µg/mL (≈ 2.33 µM)
[11]; Micrococcus luteus, ATCC9341, strain ATCC 9341, read-out: MIC
  MIC: 0.78 µg/mL (≈ 1.16 µM)
[12]; Pseudomonas aeruginosa, strain A5007, read-out: MIC
  MIC: > 100 µg/mL
[12]; Pseudomonas aeruginosa, strain BMH10, read-out: MIC
  MIC: > 100 µg/mL
[12]; Pseudomonas aeruginosa, strain K799/61, read-out: MIC
  MIC: 6.2 µg/mL (≈ 9.24 µM)
[12]; Pseudomonas aeruginosa, strain K799/WT, read-out: MIC
  MIC: > 100 µg/mL
[13]; Streptococcus equinus, read-out: MIC
  MIC: 0.1 µg/mL (≈ 0.149 µM)
[14]; Enterococcus faecium, ATCC8043, strain ATCC 8043, read-out: MIC
  MIC: 1.56 µg/mL (≈ 2.33 µM)
[15]; Klebsiella pneumoniae, ATCC8045, strain ATCC 8045, read-out: MIC
  MIC: > 100 µg/mL

## CCC1OC(=O)CC(O)C(C)C(OC2OC(C)C(O)C(N(C)C)C2O)C(CC=O)CC(C)C(N(C)C)CCC(C)=CC1COC(C)=O (stereo not shown) [Example 7, [9S]-23-O-Acetyl-9-deoxo-10,11-dihydro-9-N,N-dimethylamino-5-O-mycaminosyl-tylonide]
[1]; strain DC-2
  MIC: 50 µg/mL (≈ 74.5 µM)
[1]; strain H560
  MIC: 12.5 µg/mL (≈ 18.6 µM)
[1]; strain JUHL
  MIC: 100 µg/mL (≈ 149 µM)
[1]; strain KNK 437
  MIC: 50 µg/mL (≈ 74.5 µM)
[1]; strain SS
  MIC: 0.78 µg/mL (≈ 1.16 µM)
[2]
  MIC: > 100 µg/mL
[3]; Haemophilus influenzae, strain 588A, read-out: MIC
  MIC: 4 µg/mL (≈ 5.96 µM)
[3]; strain 503B
  MIC: 2 µg/mL (≈ 2.98 µM)
[3]; strain 519A
  MIC: 1 µg/mL (≈ 1.49 µM)
[3]; strain 566A
  MIC: 4 µg/mL (≈ 5.96 µM)
[3]; strain 747C
  MIC: 4 µg/mL (≈ 5.96 µM)
[3]; strain 751
  MIC: 16 µg/mL (≈ 23.8 µM)
[3]; strain 1177
  MIC: 0.5 µg/mL (≈ 0.745 µM)
[3]; strain 1435
  MIC: 4 µg/mL (≈ 5.96 µM)
[3]; strain ATCC 9795
  MIC: 4 µg/mL (≈ 5.96 µM)
[3]; strain ATCC 10211
  MIC: 4 µg/mL (≈ 5.96 µM)
[3]; strain ATCC 19418
  MIC: 4 µg/mL (≈ 5.96 µM)
[3]; strain ATCC 43095
  MIC: 2 µg/mL (≈ 2.98 µM)
[3]; strain DILL AMP R
  MIC: 4 µg/mL (≈ 5.96 µM)
[3]; strain SOL AMP R
  MIC: 4 µg/mL (≈ 5.96 µM)
[3]; strain SPK AMP R
  MIC: 4 µg/mL (≈ 5.96 µM)
[4]; strain 45
  MIC: 3.1 µg/mL (≈ 4.62 µM)
[4]; strain 45 RAR2
  MIC: 6.2 µg/mL (≈ 9.24 µM)
[4]; strain 642A
  MIC: 6.2 µg/mL (≈ 9.24 µM)
[4]; strain A5177
  MIC: 6.2 µg/mL (≈ 9.24 µM)
[4]; strain ATCC 6538P
  MIC: 6.2 µg/mL (≈ 9.24 µM)
[4]; strain CMX 553
  MIC: 6.2 µg/mL (≈ 9.24 µM)
[4]; strain NCTC 10649
  MIC: 6.2 µg/mL (≈ 9.24 µM)
[5]
  MIC: 1.56 µg/mL (≈ 2.33 µM)
[6]; strain ATCC 13048
  MIC: > 100 µg/mL
[7]; strain 930 CONST
  MIC: > 100 µg/mL
[7]; strain 2548 INDUC
  MIC: 1.56 µg/mL (≈ 2.33 µM)
[7]; strain EES61
  MIC: 0.78 µg/mL (≈ 1.16 µM)
[8]
  MIC: 0.39 µg/mL (≈ 0.581 µM)
[9]
  MIC: > 100 µg/mL
[10]
  MIC: 50 µg/mL (≈ 74.5 µM)
[11]; strain ATCC 4698
  MIC: 1.56 µg/mL (≈ 2.33 µM)
[11]; strain ATCC 9341
  MIC: 0.78 µg/mL (≈ 1.16 µM)
[12]; strain A5007
  MIC: > 100 µg/mL
[12]; strain BMH10
  MIC: 100 µg/mL (≈ 149 µM)
[12]; strain K799/61
  MIC: 3.1 µg/mL (≈ 4.62 µM)
[12]; strain K799/WT
  MIC: > 100 µg/mL
[13]
  MIC: 0.1 µg/mL (≈ 0.149 µM)
[14]; strain ATCC 8043
  MIC: 1.56 µg/mL (≈ 2.33 µM)
[15]; strain ATCC 8045
  MIC: 100 µg/mL (≈ 149 µM)
